From patent publication US9662327B2 (AGIOS PHARMACEUTICALS, INC, priority 2011, dated 2017) come the findings set out here.

The target in the first experiment is IDH1 R132H (Homo sapiens (Human), UniProt O75874, R132H). Description: Assays for IDH1 R132H Inhibitors (NADPH/aKG, resazurin detection). Type of experiment: biochemical. To be noted: IDH1 R132H enzyme, Table 2; read-out: IDHR132H Activity. As to the method: Assays were conducted in a volume of […] assay buffer (150 mM NaCl, 10 mM MgCl2, 20 mM Tris pH 7.5, 0.03% bovine serum albumin) as follows in a standard 384-well plate: To 25 ul of substrate mix (8 uM NADPH, 2 mM aKG), 1 μl of test compound was added in DMSO. […] The reaction was incubated for 50 minutes at room temperature, then 25 μl of detection mix (30 μM resazurin, […]) was added and the mixture further incubated for 5 minutes at room temperature.
Sequence of IDH1 R132H (O75874 whole entry R132H): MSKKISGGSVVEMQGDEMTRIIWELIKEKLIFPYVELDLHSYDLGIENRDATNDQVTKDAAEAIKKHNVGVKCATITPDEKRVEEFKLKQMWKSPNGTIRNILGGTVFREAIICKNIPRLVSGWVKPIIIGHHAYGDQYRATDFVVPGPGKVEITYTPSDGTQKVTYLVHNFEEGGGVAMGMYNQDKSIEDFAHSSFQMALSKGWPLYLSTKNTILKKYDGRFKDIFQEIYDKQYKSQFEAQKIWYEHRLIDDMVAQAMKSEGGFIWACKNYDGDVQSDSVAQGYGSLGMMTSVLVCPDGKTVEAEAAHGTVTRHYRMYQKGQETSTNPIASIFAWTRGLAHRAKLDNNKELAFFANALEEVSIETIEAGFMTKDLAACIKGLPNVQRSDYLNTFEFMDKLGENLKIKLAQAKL
(Resazurin is reduced to fluorescent resorufin, in cell work by metabolically active cells.)
For `CC(C)[C@@H]1CN(c2nc(C3CC3)c3c(c2C#N)CC(C)(C)OC3)CCN1C(=O)COCc1ccco1` [Compound 404, (R)-8-cyclopropyl-6-(4-(2-(furan-2-ylmethoxy)acetyl)-3-isopropylpiperazin-1-yl)-3,3-dimethyl-3,4-dihydro-1H-pyrano[3,4-c]pyridine-5-carbonitrile], the IC50 is 1 to 10 µM.

Take `COC(=O)C1CN(c2nc(C3CC3)c3c(c2C#N)CC(C)(C)OC3)CCN1C(=O)c1ccoc1C` (centres unmarked) [Compound 394, methyl 4-(5-cyano-8-cyclopropyl-3,3-dimethyl-3,4-dihydro-1H-pyrano[3,4-c]pyridin-6-yl)-1-(2-methylfuran-3-carbonyl)piperazine-2-carboxylate]: the IC50 is 0.5 to 1 µM.

As to `COC(=O)N1CCN(c2nc(C3CC3)c3c(c2C#N)CC(C)(C)OC3)C[C@H]1C(C)C` [Compound 346, (R)-methyl 4-(5-cyano-8-cyclopropyl-3,3-dimethyl-3,4-dihydro-1H-pyrano[3,4-c]pyridin-6-yl)-2-isopropylpiperazine-1-carboxylate], the IC50 was less than 0.5 µM.

`CCOC(=O)N1CCN(c2nc(C3CC3)c3c(c2C#N)CC(C)(C)OC3)C[C@H]1C(C)C` [Compound 367]: the IC50 was in the range of 1 to 10 µM.

As to `CC(C)[C@@H]1CN(c2nc(C3CC3)c3c(c2C#N)CC(C)(C)OC3)CCN1C(=O)OCC1CC1` [Compound 370, (R)-cyclopropylmethyl 4-(5-cyano-8-cyclopropyl-3,3-dimethyl-3,4-dihydro-1H-pyrano[3,4-c]pyridine-6-yl)-2-isopropylpiperazine-1-carboxylate], the IC50 was in the range of 1 to 10 µM.

As for `C=CCNC(=O)N1CCN(c2nc(C3CCCCC3)c3c(c2C#N)CCOC3)CC1C(=O)OCC` (centres unmarked) [Compound 330, ethyl 1-(allylcarbamoyl)-4-(5-cyano-8-cyclohexyl-3,4-dihydro-1H-pyrano[3,4-c]pyridin-6-yl)-piperazine-2-carboxylate], the IC50 is 1 to 10 µM.

On to `CCCOCC(=O)N1CCN(c2nc(C3CC3)c3c(c2C#N)CC(C)(C)OC3)C[C@H]1C(C)C` [Compound 381], for which the IC50 fell in the range of 0.5 to 1 µM.

Turning to `CC(C)[C@@H]1CN(c2nc(C3CCC3)c3c(c2C#N)CC(C)(C)OC3)CCN1C(=O)C1CC1` [Compound 396, (R)-8-cyclobutyl-6-(4-(cyclopropanecarbonyl)-3-isopropylpiperazin-1-yl)-3,3-dimethyl-3,4-dihydro-1H-pyrano[3,4-c]pyridine-5-carbonitrile], the IC50 was 0.5 to 1 µM.

As to `CC(C)c1nc(N2CCN(S(=O)(=O)c3cccs3)[C@H](C)C2)c(C#N)c2c1COC(C)(C)C2` [Compound 170, (R)-8-isopropyl-3,3-dimethyl-6-(3-methyl-4-(thiophen-2-ylsulfonyl)piperazin-1-yl)-3,4-dihydro-1H-pyrano[3,4-c]pyridine-5-carbonitrile], the IC50 fell in the range of 1 to 10 µM.

Consider `COCCC(=O)N1CCN(c2nc(C3CC3)c3c(c2C#N)CC(C)(C)OC3)CC1C(=O)OC` (centres unmarked) [Compound 388], for which the IC50 lay within 0.5 to 1 µM.

Take `C[C@@H]1CN(c2nc(C3CCCCC3)c3c(c2C#N)CCOC3)CCN1C(=O)c1cscn1` [Compound 239, (R)-8-cyclohexyl-6-(3-methyl-4-(thiazole-4-carbonyl)piperazin-1-yl)-3,4-dihydro-1H-pyrano[3,4-c]pyridine-5-carbonitrile]: the IC50 was in the range of 1 to 10 µM.

Take `CC(C)[C@@H]1CN(c2nc(C3CC3)c3c(c2C#N)CC(C)(C)OC3)CCN1C(=O)C1CCOC1` (some centres unmarked) [Compound 266]: the IC50 was 0.5 to 1 µM.

In the case of `Cc1ccoc1C(=O)N1CCN(c2nc(C3CCCCC3)c3c(c2C#N)CCOC3)CC1` [Compound 129, 8-cyclohexyl-6-(4-(3-methylfuran-2-carbonyl)piperazin-1-yl)-3,4-dihydro-1H-pyrano[3,4-c]pyridine-5-carbonitrile], the IC50 fell in the range of 1 to 10 µM.

The same experiment, now with this note: IDH1 R132H enzyme, Table 3; read-out: R132H IC50.
For the compound `CC(C)[C@@H]1CN(c2nc(C3CC3)c3c(c2C#N)CC(C)(C)OC3)CCN1C(=O)CS(C)(=O)=O` [Compound 446, (R)-8-cyclopropyl-6-(3-isopropyl-4-(2-(methylsulfonyl)acetyl)piperazin-1-yl)-3,3-dimethyl-3,4-dihydro-1H-pyrano[3,4-c]pyridine-5-carbonitrile], the IC50 lay in the range of 0.5 to 1 µM.
